The values below come from patent US9023789B2, “Amylin analogs and pharmaceutical compositions thereof” (Novo Nordisk A/S, priority 2012, dated 2015).

By IC50 is commonly meant the concentration at which inhibition is half-maximal.

Series [1] is described as follows: ASSAY (IV) determination of solubility. In kind it is physicochemical. The essentials:
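Solubility measured by UPLC of supernatant after centrifugation, following 18 h at room temperature. Peptide ([…] in water) was diluted 1:1 into 100 mM glycylglycine (pH 3.0, 4.0, 5.0) or bistrispropane (pH 6.0-8.0).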

Series [2] addresses T1, rat calcitonin receptor (Rattus norvegicus, UniProt P32214).
T1 construct: expressed in transfected cells; host or cells: BHK tk'ts 13 (transient, FuGENE 6), membranes
T1 sequence (P32214 25-479 isoform P32214-2 limits assumed): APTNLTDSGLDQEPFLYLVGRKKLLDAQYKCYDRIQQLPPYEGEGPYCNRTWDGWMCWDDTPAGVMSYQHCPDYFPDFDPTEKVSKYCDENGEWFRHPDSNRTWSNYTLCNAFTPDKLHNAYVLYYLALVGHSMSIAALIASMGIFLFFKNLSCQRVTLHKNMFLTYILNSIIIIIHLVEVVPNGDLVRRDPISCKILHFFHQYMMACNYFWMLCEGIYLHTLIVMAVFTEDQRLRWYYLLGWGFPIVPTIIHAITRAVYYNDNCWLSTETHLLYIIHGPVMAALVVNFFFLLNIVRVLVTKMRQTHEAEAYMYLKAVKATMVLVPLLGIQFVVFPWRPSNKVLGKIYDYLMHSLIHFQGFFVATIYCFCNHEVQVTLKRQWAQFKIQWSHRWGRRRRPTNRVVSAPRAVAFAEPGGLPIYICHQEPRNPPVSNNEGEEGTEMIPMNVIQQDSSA
The experiment in a line: ASSAY (VIII) binding to the rat calcitonin receptor. The conditions noted are these: Table 7, read-out: rCTR bind IC50. An outline of the steps: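 BHK tk′ts 13 cells, transient rat calcitonin receptor transfection; DMEM + 10% FBS; harvest ~48 h post-transfection; membrane prep.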

Series [3] concerns the target T2, rat amylin receptor (rat calcitonin receptor + rat RAMP 3) (Rattus norvegicus, UniProt P32214+Q9JJ73).
T2 construct: expressed in transfected cells; host or cells: BHK tk'ts 13 (transient, FuGENE 6), membranes
T2 sequence (P32214 25-479 isoform P32214-2 limits assumed): T1 sequence (P32214 25-479 isoform P32214-2 limits assumed)
T2 sequence (Q9JJ73 23-147 partner): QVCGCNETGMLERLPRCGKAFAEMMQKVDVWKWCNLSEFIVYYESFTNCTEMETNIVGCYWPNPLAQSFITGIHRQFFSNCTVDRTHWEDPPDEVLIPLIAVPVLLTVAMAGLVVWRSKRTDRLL
The experiment in a line: ASSAY (VI) binding to the rat amylin receptor. The conditions noted are these: for IC50: binding to rat amylin receptor, read-out: rAmylin-R bind IC50. An outline of the steps:
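The cell-membrane assay assessed binding at the rat amylin receptor. BHK tk′ts 13 cells were transfected transiently with rat calcitonin receptor, with FuGENE® 6 (Roche) as the transfection reagent, used per the manufacturer's recommendations. Approximately 48 hours after transfection the cells were harvested, and membranes were prepared for measuring binding.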

Setting [4] is: bistrispropane buffer, pH 6.5, read-out: Solubility pH 6.5 Concentration.
Where [5] appears, read: bistrispropane buffer, pH 7.5, read-out: Solubility pH 7.5 Concentration.
Setting [6] is: bistrispropane buffer, pH 6.0, read-out: Solubility pH 6.0 Concentration.
Where [7] appears, read: bistrispropane buffer, pH 7.0, read-out: Solubility pH 7.0 Concentration.
Setting [8] is: bistrispropane buffer, pH 8.0, read-out: Solubility pH 8.0 Concentration.
Where [9] appears, read: glycylglycine buffer, pH 3.0, read-out: Solubility pH 3.0 Concentration.
[10] abbreviates: glycylglycine buffer, pH 4.0, read-out: Solubility pH 4.0 Concentration.
Setting [11] is: glycylglycine buffer, pH 5.0, read-out: Solubility pH 5.0 Concentration.
Where [12] appears, read: Table 7, rat binding selectivity, rCTR IC50 / rAmylin-R IC50.
Setting [13] is: Table 7a (preferred compounds), rat binding selectivity, rCTR IC50 / rAmylin-R IC50.
[14] abbreviates: ratio of rCTR bind IC50 to rAmylin-R bind IC50.

Converted amounts (≈) assume the structure as drawn. Where two headings read alike, the source gives them in different places. Numbered stars: 1 amine (or outer) side, 2 acyl side, 3 side chain; on linkers, the order of the positions; unused ones are H or OH. Bridge positions count the residues as written; N and C are the ends. Side chains are listed from the residue outwards. Peptide text beside a SMILES is read from it. * marks the point of attachment. C20 diacid = O=C(O)CCCCCCCCCCCCCCCCCCC(=O)*; γGlu = O=C(O)[C@H](CCC(=O)[*:2])N[*:1]

Turning to `CC[C@H](C)[C@H](NC(=O)[C@H](C)NC(=O)CNC(=O)[C@H](Cc1ccccc1)NC(=O)[C@H](CC(N)=O)NC(=O)[C@@H]1CCCN1C(=O)[C@H](CO)NC(=O)[C@H](CO)NC(=O)[C@H](Cc1c[nH]cn1)NC(=O)[C@H](CCCNC(=N)N)NC(=O)[C@H](CC(C)C)NC(=O)[C@H](Cc1ccccc1)NC(=O)[C@H](Cc1c[nH]cn1)NC(=O)[C@H](C)NC(=O)[C@H](CC(C)C)NC(=O)[C@H](CCCNC(=N)N)NC(=O)[C@H](CCC(N)=O)NC(=O)[C@@H](NC(=O)[C@H](C)NC(=O)[C@@H]1CSSC[C@H](NC(=O)[C@H](CCCNC(=N)N)NC(=O)CNC(=O)CC[C@H](NC(=O)CCCCCCCCCCCCCCCCCCC(=O)O)C(=O)O)C(=O)N[C@@H](CC(N)=O)C(=O)N[C@@H]([C@@H](C)O)C(=O)N[C@@H](C)C(=O)N[C@@H]([C@@H](C)O)C(=O)N1)[C@@H](C)O)C(=O)N1CCC[C@H]1C(=O)N[C@@H](CO)C(=O)N[C@@H](CO)C(=O)N[C@H](C(=O)N[C@@H](CC(N)=O)C(=O)N[C@H](C(=O)NCC(=O)N[C@@H](CO)C(=O)N[C@@H](CC(N)=O)C(=O)N[C@H](C(=O)N[C@@H](Cc1ccc(O)cc1)C(N)=O)[C@@H](C)O)C(C)C)[C@@H](C)O` [Example 99] ({C20 diacid-γGlu}-GRCNTATCATQRLAHFLRHSSPNFGAIPSSTNVGSNTY-NH2; disulfide 3-8), the solubility at 18 h in series [1] (setting [4]) is not below 200 µM; in series [1] (setting [5]), 94 µM (≈ 422 µg/mL); in series [1] (setting [6]), not below 200 µM; in series [1] (setting [7]), 154 µM (≈ 691 µg/mL); in series [1] (setting [8]), 120 µM (≈ 539 µg/mL); in series [1] (setting [9]), not below 200 µM. For the same compound, the solubility at 18 h in series [1] (setting [10]) and in series [1] (setting [11]) was not below 200 µM in each case. The IC50 in series [2] is 216 nM; in series [3] (Table 7), 2.7 nM. In addition, the “Ratio rCT/rAmylin binding” value in series [3] (setting [12]), in series [3] (setting [13]) and in series [3] (setting [14]) was 79.8 in each case.

Take `CC[C@H](C)[C@H](NC(=O)[C@H](C)NC(=O)CNC(=O)[C@H](Cc1ccccc1)NC(=O)[C@H](CC(N)=O)NC(=O)[C@@H]1CCCN1C(=O)[C@H](CO)NC(=O)[C@H](CO)NC(=O)[C@H](Cc1c[nH]cn1)NC(=O)[C@H](CCCNC(=N)N)NC(=O)[C@H](CC(C)C)NC(=O)[C@H](Cc1ccccc1)NC(=O)[C@H](Cc1c[nH]cn1)NC(=O)[C@H](C)NC(=O)[C@H](CC(C)C)NC(=O)[C@H](CCCNC(=N)N)NC(=O)[C@H](CCC(N)=O)NC(=O)[C@@H](NC(=O)[C@H](C)NC(=O)[C@@H]1CSSC[C@H](NC(=O)[C@H](CCCNC(=N)N)NC(=O)CNC(=O)CC[C@H](NC(=O)CCCCCCCCCCCCCCCCCCC(=O)O)C(=O)O)C(=O)N[C@@H](CC(N)=O)C(=O)N[C@@H]([C@@H](C)O)C(=O)N[C@@H](C)C(=O)N[C@@H]([C@@H](C)O)C(=O)N1)[C@@H](C)O)C(=O)N1CCC[C@H]1C(=O)N[C@@H](CO)C(=O)N[C@@H](CO)C(=O)N[C@H](C(=O)N[C@@H](CC(N)=O)C(=O)N[C@H](C(=O)NCC(=O)N[C@@H](Cc1c[nH]cn1)C(=O)N[C@@H](CC(N)=O)C(=O)N[C@H](C(=O)N[C@@H](Cc1ccc(O)cc1)C(N)=O)[C@@H](C)O)C(C)C)[C@@H](C)O` [Example 100] ({C20 diacid-γGlu}-GRCNTATCATQRLAHFLRHSSPNFGAIPSSTNVGHNTY-NH2; disulfide 3-8 (inferred)): the solubility at 18 h is not below 200 µM in series [1] (setting [4]); 26 µM (≈ 118 µg/mL) in series [1] (setting [5]); not below 200 µM in series [1] (setting [6]); 109 µM (≈ 495 µg/mL) in series [1] (setting [7]); 31 µM (≈ 141 µg/mL) in series [1] (setting [8]); not below 200 µM in series [1] (setting [9]). In addition, the solubility at 18 h in series [1] (setting [10]) is not below 200 µM. Also, in series [1] (pH 6.5 (Table 9a)), the “Solubility pH 6.5 Concentration” value is “≧200 μM”. Moreover, the results for the IC50 in series [2] and in series [3] (Table 7) were 311 nM and 11.2 nM, respectively. Also, the “Ratio rCT/rAmylin binding” value in series [3] (setting [12]), in series [3] (setting [13]) and in series [3] (setting [14]) was 27.7 throughout.

On to `CC[C@H](C)[C@H](NC(=O)[C@H](C)NC(=O)CNC(=O)[C@H](Cc1ccccc1)NC(=O)[C@H](CC(N)=O)NC(=O)[C@@H]1CCCN1C(=O)[C@H](CO)NC(=O)[C@H](CO)NC(=O)[C@H](Cc1c[nH]cn1)NC(=O)[C@H](CCCNC(=N)N)NC(=O)[C@H](CC(C)C)NC(=O)[C@H](Cc1ccccc1)NC(=O)[C@H](CCC(=O)O)NC(=O)[C@H](C)NC(=O)[C@H](CC(C)C)NC(=O)[C@H](CCCNC(=N)N)NC(=O)[C@H](CCC(N)=O)NC(=O)[C@@H](NC(=O)[C@H](C)NC(=O)[C@@H]1CSSC[C@H](NC(=O)[C@@H](N)CCCCNC(=O)CC[C@H](NC(=O)CC[C@H](NC(=O)CCCCCCCCCCCCCCCCCCC(=O)O)C(=O)O)C(=O)O)C(=O)N[C@@H](CC(N)=O)C(=O)N[C@@H]([C@@H](C)O)C(=O)N[C@@H](C)C(=O)N[C@@H]([C@@H](C)O)C(=O)N1)[C@@H](C)O)C(=O)N[C@@H](CC(C)C)C(=O)N[C@@H](CO)C(=O)N[C@@H](CO)C(=O)N[C@H](C(=O)N1CCC[C@H]1C(=O)N[C@H](C(=O)NCC(=O)N1CCC[C@H]1C(=O)N[C@@H](CCC(=O)O)C(=O)N[C@H](C(=O)N[C@@H](Cc1ccc(O)cc1)C(N)=O)[C@@H](C)O)C(C)C)[C@@H](C)O` [Example 121] (H-K([γGlu-γGlu-C20 diacid])CNTATCATQRLAEFLRHSSPNFGAILSSTPVGPETY-NH2; disulfide 2-7; N-terminus assumed), for which the solubility at 18 h in series [1] (setting [4]), in series [1] (setting [5]), in series [1] (setting [6]), in series [1] (setting [7]), in series [1] (setting [8]) and in series [1] (setting [10]) was not below 200 µM in each case. For the same compound, the solubility at 18 h in series [1] (setting [11]) was not below 200 µM. Further, the IC50 came out at 33.5 nM in series [2] and 0.449 nM in series [3] (Table 7). For the same compound, the “Ratio rCT/rAmylin binding” value in series [3] (setting [12]), in series [3] (setting [13]) and in series [3] (setting [14]) was 74.7 throughout.

Regarding `CC[C@H](C)[C@H](NC(=O)[C@H](C)NC(=O)CNC(=O)[C@@H]1CCCN1C(=O)[C@H](CC(N)=O)NC(=O)[C@H](CC(N)=O)NC(=O)[C@H](CO)NC(=O)[C@H](CO)NC(=O)[C@H](Cc1c[nH]cn1)NC(=O)[C@H](CCCNC(=N)N)NC(=O)[C@H](CC(C)C)NC(=O)[C@H](Cc1ccccc1)NC(=O)[C@H](CCC(=O)O)NC(=O)[C@H](C)NC(=O)[C@H](CC(C)C)NC(=O)[C@H](CCCNC(=N)N)NC(=O)[C@H](CCC(N)=O)NC(=O)[C@@H](NC(=O)[C@H](C)NC(=O)[C@@H]1CSSC[C@H](NC(=O)[C@@H](N)CCCCNC(=O)CC[C@H](NC(=O)CC[C@H](NC(=O)CCCCCCCCCCCCCCCCCCC(=O)O)C(=O)O)C(=O)O)C(=O)N[C@@H](CC(N)=O)C(=O)N[C@@H]([C@@H](C)O)C(=O)N[C@@H](C)C(=O)N[C@@H]([C@@H](C)O)C(=O)N1)[C@@H](C)O)C(=O)N[C@@H](CC(C)C)C(=O)N[C@@H](CO)C(=O)N[C@@H](CO)C(=O)N[C@H](C(=O)N[C@@H](CC(N)=O)C(=O)N[C@H](C(=O)NCC(=O)N1CCC[C@H]1C(=O)N[C@@H](CCC(=O)O)C(=O)N[C@H](C(=O)N[C@@H](Cc1ccc(O)cc1)C(N)=O)[C@@H](C)O)C(C)C)[C@@H](C)O` [Example 126] (H-K([γGlu-γGlu-C20 diacid])CNTATCATQRLAEFLRHSSNNPGAILSSTNVGPETY-NH2; disulfide 2-7 (inferred); N-terminus assumed), the solubility at 18 h is 131 µM (≈ 594 µg/mL) in series [1] (setting [4]); not below 200 µM in series [1] (setting [5]); 64 µM (≈ 290 µg/mL) in series [1] (setting [6]); 198 µM (≈ 898 µg/mL) in series [1] (setting [7]); 7 µM (≈ 31.7 µg/mL) in series [1] (setting [10]). The IC50 in series [2] amounted to 86.8 nM; in series [3] (Table 7) it was 0.659 nM. Besides, the “Ratio rCT/rAmylin binding” value in series [3] (setting [12]) and in series [3] (setting [13]) was 131.7 throughout.
